Experimental data as given in US20130217664A1, “NOVEL COMPOUNDS USEFUL FOR THE TREATMENT OF DEGENERATIVE AND INFLAMMATORY DISEASES” (priority 2012, published 2013).
Read-outs that look alike come from different tables or passages of the source.

Key:
[1] = test system: pSTAT1(2)-luciferase reporter in HeLa cells triggered with human OSM; experiment: JAK-STAT signalling assay; format: cell-based; conditions: HeLa cells, pSTAT1(2)-luciferase reporter, human OSM 33 ng/mL, read-out: JAK-STAT IC50
In short: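 HeLa cells transiently co-transfected with pSTAT1(2)-luciferase and LacZ control reporter, preincubated with compound 60 min, then stimulated with human OSM (33 ng/mL final) overnight at 37 °C. Luciferase read by luminescence; percent inhibition from vehicle and no-trigger controls, EC50 from dose-response.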

[2] = test system: BA/F3 cell line; experiment: BA/F3 viability assay; conditions: Mus musculus, BaF3, 48 h, read-out: BA/F3 IC50
[3] = test system: CTLL-2 cell line; experiment: CTLL2 viability assay; format: cell-based; conditions: Mus musculus, IL-2 dependent CTLL2 viability, 24 h, ATP-lite
Excerpt: The protocol describes the methods to analyse the activity of compounds on their ability to sustain the IL2-dependent viability of CTLL2.
Final DMSO concentration was 0.1%.

[4] = target: T1, human TYK2 (Homo sapiens, UniProt P29597); experiment: TYK2 inhibition assay; format: biochemical; conditions: recombinant human TYK2 catalytic domain, polyGT substrate
T1 construct: catalytic domain (amino acids 871-1187; catalog number 08-147); purchased Carna Biosciences 08-147
T1 sequence (P29597 871-1187): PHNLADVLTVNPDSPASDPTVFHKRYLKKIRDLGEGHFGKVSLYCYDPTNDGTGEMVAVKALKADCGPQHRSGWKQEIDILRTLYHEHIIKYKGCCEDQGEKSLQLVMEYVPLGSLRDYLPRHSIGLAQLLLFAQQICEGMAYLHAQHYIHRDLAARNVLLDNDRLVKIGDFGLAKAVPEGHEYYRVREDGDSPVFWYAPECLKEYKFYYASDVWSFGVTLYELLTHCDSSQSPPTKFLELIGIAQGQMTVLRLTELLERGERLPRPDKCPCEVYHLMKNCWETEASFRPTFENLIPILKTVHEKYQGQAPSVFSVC
In short: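 Radiometric kinase reaction run 90 min at 30 °C, stopped with phosphoric acid, washed and scintillation-counted.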

[5] = target: T2, human JAK1 (Homo sapiens, UniProt P23458); experiment: JAK1 inhibition assay (polyGT substrate / Ulight-JAK1 peptide); format: biochemical; conditions: recombinant human JAK1 catalytic domain; polyGT or Ulight-JAK1 peptide assay
T2 construct: catalytic domain, amino acids 866-1154; catalog number PV4774; purchased Invitrogen PV4774
In short: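 Two formats. PolyGT radiometric: 45 min at 30 °C, stopped with phosphoric acid, counted as cpm. Ulight-JAK1 peptide: 60 min at room temperature, stopped with Eu-anti-phosphotyrosine/EDTA, read as RFU. Percent inhibition normalised to vehicle and 10 μM staurosporine.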

[6] = target: T3, human JAK3 (Homo sapiens, UniProt P52333); experiment: JAK3 inhibition assay; format: biochemical; conditions: recombinant human JAK3 catalytic domain; polyGT substrate
T3 construct: catalytic domain (amino acids 781-1124; catalog number PV3855); purchased Invitrogen PV3855
In short: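 Radiometric kinase assay: 0.5 ng JAK3 with 2.5 μg polyGT in Tris pH 7.5/MgCl2 buffer, 1 μM ATP plus 0.25 μCi 33P-γ-ATP, 1% DMSO, 45 min at 30 °C, stopped with phosphoric acid.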

T3 sequence (P52333 781-1124): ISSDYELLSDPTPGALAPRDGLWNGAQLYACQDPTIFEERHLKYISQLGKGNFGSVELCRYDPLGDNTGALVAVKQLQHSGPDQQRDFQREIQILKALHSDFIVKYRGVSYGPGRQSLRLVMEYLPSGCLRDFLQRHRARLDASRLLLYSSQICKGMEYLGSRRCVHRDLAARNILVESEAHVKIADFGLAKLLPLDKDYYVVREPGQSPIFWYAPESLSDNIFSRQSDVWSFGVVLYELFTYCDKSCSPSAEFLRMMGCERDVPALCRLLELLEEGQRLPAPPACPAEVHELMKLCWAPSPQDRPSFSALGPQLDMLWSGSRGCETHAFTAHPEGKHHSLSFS
T2 sequence (P23458 866-1154): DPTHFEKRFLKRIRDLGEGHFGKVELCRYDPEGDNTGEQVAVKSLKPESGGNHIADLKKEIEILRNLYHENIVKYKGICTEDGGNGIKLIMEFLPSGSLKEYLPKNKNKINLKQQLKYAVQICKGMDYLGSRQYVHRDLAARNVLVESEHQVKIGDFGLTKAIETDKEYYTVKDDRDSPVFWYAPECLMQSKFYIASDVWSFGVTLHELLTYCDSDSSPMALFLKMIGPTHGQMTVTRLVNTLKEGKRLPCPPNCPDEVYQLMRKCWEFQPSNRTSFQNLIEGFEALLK

Row | Compound | IC50 ([1]; Homo sapiens, HeLa) [nM] | IC50 [2] [nM] | IC50 [4] [nM] | IC50 [5] [nM] | IC50 [1] [nM] | IC50 [6] [nM] | IC50 [3] [nM]
1 | CCc1cc(C2CCN(S(C)(=O)=O)CC2)ccc1N(C)c1cc2c(cn1)ncn2C [Compound 214, N-(2-ethyl-4-(1-(methylsulfonyl)piperidin-4-yl)phenyl)-N,1-dimethyl-1H-imidazo[4,5-c]pyridin-6-amine] | 1 to 500 | 1 to 1000 | 0.01 to 100 | 0.01 to 100 |  |  | 501 to 1000
2 | CCc1cc(CNC2COC2)ccc1N(C)c1cc2c(cn1)ncn2C [Compound 167, N-(2-ethyl-4-((oxetan-3-ylamino)methyl)phenyl)-N,1-dimethyl-1H-imidazo[4,5-c]pyridin-6-amine] |  | > 5000 | 501 to 1000 | 0.01 to 100 | > 1000 | > 1000 | > 1000
3 | CCc1cc(CNS(=O)(=O)CC)ccc1N(C)c1cc2c(cn1)ncn2C [Compound 253, N-(3-ethyl-4-(methyl(1-methyl-1H-imidazo[4,5-c]pyridin-6-yl)amino)benzyl)ethane-sulfonamide] | 1 to 500 | > 5000 | 0.01 to 100 | 0.01 to 100 |  | 0.01 to 100 | > 1000
4 | CCc1cc(-c2cncc(C(F)(F)F)c2)ccc1N(C)c1cc2c(cn1)ncn2C [Compound 194, N-(2-ethyl-4-(5-(trifluoromethyl)pyridin-3-yl)phenyl)-N,1-dimethyl-1H-imidazo[4,5-c]pyridin-6-amine] | > 1000 | 1000 to 5000 | 501 to 1000 | 0.01 to 100 |  | > 1000 | > 1000
5 | CCc1cc(C2=CCN(C(=O)C(F)F)CC2)ccc1N(C)c1cc2c(cn1)ncn2C [Compound 197, 1-(4-(3-ethyl-4-(methyl(1-methyl-1H-imidazo[4,5-c]pyridin-6-yl)amino)phenyl)-5,6-dihydropyridin-1(2H)-yl)-2,2-difluoroethanone] | 1 to 500 | 1000 to 5000 | 0.01 to 100 | 0.01 to 100 |  | 0.01 to 100 | 501 to 1000
6 | CCc1cc(CNC(C)=O)ccc1N(C)c1cc2c(cn1)ncn2C [Compound 182, N-(3-Ethyl-4-(methyl(1-methyl-1H-imidazo[4,5-c]pyridin-6-yl)amino)benzyl)acetamide] | > 1000 | > 5000 | 101 to 500 | 0.01 to 100 |  | 501 to 1000 | > 1000

Further lines, with some results ahead:

Row | IC50 ([1]; Homo sapiens, HeLa) [nM] | IC50 [2] [nM] | IC50 [4] [nM] | IC50 [5] [nM] | IC50 [1] [nM] | IC50 [6] [nM] | Compound | IC50 [3] [nM]
7 |  | 1000 to 5000 | 101 to 500 | 0.01 to 100 | 1 to 500 | 101 to 500 | CCc1cc(CN2CCCS2(=O)=O)ccc1N(C)c1cc2c(cn1)ncn2C [Compound 262, [4-(1,1-Dioxoisothiazolidin-2-ylmethyl)-2-ethyl-phenyl]-methyl-(1-methyl-1H-imidazo[4,5-c]pyridin-6-yl)-amine] | > 1000
8 |  | 1000 to 5000 | 0.01 to 100 | 0.01 to 100 | 1 to 500 | 101 to 500 | CN(c1cc2c(cn1)ncn2C)c1ccc(-c2cnn(C)c2)cc1OC(F)F [Compound 274, N-(2-(Difluoromethoxy)-4-(1-methyl-1H-pyrazol-4-yl)phenyl)-N,1-dimethyl-1H-imidazo[4,5-c]pyridin-6-amine] | > 1000
9 | > 1000 | > 5000 | > 1000 | 0.01 to 100 |  | > 1000 | CCc1cc(CNC(=O)COC)ccc1N(C)c1cc2c(cn1)ncn2C [Compound 254, N-(3-Ethyl-4-(methyl(1-methyl-1H-imidazo[4,5-c]pyridin-6-yl)amino)benzyl)-2-methoxyacetamide] | > 1000
